From PMC10424186 (Journal of Medicinal Chemistry, 2023)
Entries after “also recorded” stand apart in the source; their conditions may differ. Read-outs that look alike come from different tables or passages of the source. One block for each compound: values may come before it.

Tests used:
AspH [1] = biological target: T1, AspH (Homo sapiens, UniProt Q12797); conditions: cited from earlier work; for IC50 AspH: Supporting Table S1, reported SPE-MS value, ref SI 18
T1 construct: N-terminally His6-tagged AspH315–758; made in house; host or cells: Escherichia coli
T1 sequence (Q12797 315-758): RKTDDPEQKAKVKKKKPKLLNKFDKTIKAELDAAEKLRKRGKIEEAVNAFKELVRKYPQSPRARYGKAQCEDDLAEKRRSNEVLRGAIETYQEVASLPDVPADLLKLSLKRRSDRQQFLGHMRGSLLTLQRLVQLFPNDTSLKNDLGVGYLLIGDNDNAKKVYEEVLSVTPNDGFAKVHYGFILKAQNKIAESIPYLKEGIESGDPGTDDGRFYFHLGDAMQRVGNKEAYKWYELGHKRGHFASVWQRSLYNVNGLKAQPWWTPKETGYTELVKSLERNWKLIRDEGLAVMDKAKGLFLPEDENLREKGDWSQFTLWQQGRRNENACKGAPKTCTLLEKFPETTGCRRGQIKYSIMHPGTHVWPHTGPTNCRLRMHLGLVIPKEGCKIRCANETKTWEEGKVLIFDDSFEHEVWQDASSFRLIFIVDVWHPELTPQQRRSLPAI

human JMJD5 = human JMJD5 (Homo sapiens, UniProt Q8N371); test: SPE-MS JMJD5 inhibition assay (hydroxylation of RPS6 128–148 peptide); format: biochemical
Sequence of human JMJD5 (Q8N371 whole entry, the tested form may be a part): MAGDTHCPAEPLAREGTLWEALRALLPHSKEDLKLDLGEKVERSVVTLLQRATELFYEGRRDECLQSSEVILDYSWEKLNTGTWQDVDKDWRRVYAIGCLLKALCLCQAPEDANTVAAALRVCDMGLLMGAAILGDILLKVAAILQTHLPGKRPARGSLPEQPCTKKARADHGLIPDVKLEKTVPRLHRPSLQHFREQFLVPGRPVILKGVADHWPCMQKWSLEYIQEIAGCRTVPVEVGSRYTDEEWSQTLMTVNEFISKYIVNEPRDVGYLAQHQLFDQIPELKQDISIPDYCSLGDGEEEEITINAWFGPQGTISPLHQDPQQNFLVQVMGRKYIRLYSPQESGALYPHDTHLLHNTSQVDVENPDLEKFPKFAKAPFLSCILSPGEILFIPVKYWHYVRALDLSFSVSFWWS
From the text: Synthetic peptides with sequences based on reported human 2OG oxygenase substrates were used in SPE-MS inhibition assays: RPS6, residues 128–148, for JMJD5;[42] HIF-α CODD, residues 558–574, for PHD2;[70] HIF-α CAD, residues 788–822, for FIH;[70] H3_1-15K9me3, histone 3 (H3), residues 1–15 with K9 of H3-bearing three methyl groups at the N^ε-position, K4 of H3 substituted by an alanine residue, and K14 of H3 by an isoleucine residue,[73] for KDM4E; and RPL27A, residues 31–49, for RIOX2 (Mina53).[44] All peptides were prepared as C-terminal amides by GL Biochem (Shanghai) Ltd. A synthetic thioether-linked cyclic peptide, hFX-CP101–119,[48] which was designed based on the reported cellular AspH substrate human coagulation factor X (hFX, residues 101–119; C101 was substituted for a D-alanine residue and C112 for a serine residue),[79] was used as AspH substrate; it was prepared with a C-terminal amide according to literature protocols.[80]
Cosubstrate/cofactor stock solutions [L-ascorbic acid/LAA: 50 mM in MQ-grade water; 2-oxoglutarate/2OG: 10 mM in MQ-grade water; ammonium iron(II) sulfate hexahydrate/FAS/(NH4)2Fe(SO4)2·6H2O: 400 mM in 20 mM HCl diluted to 1 mM in MQ-grade water] were freshly prepared from commercial solids (Sigma-Aldrich) on the day the assays were performed. The JMJD5,[42] PHD2,[70] FIH,[70] KDM4E,[72],[73] RIOX2,[44] and AspH[45] SPE-MS inhibition assays were performed as described in the cited literature, using isolated recombinant human enzymes (His6-thioredoxin-JMJD5,[42] His6-PHD2_181–426,[70] His6-FIH,[70] His6-KDM4E,[72],[73] His6-RIOX2_26–465,[87],[88] and His6-AspH315–758[48],[80]) and synthetic peptide substrates (RPS6_128–148 for JMJD5;[42] HIF-α CODD558–574 for PHD2;[70] HIF-α CAD788–822 for FIH;[70] H3_1–15K9me3 for KDM4E;[73] RPL27A31–49 for RIOX2;[44],[71] and hFX-CP101–119 for AspH;[45],[48] see above). For JMJD5, PHD2, FIH, RIOX2, and AspH, substrate hydroxylation was monitored (+16 Da mass shift), while for the KDM4E substrate, demethylation was monitored (−14 Da mass shift) by SPE-MS.

KDM4E [2] = biological target: T2, KDM4E (Homo sapiens, UniProt B2RXH2); conditions: cited from earlier work
T2 construct: made in house; host or cells: Escherichia coli
T2 sequence (B2RXH2 1-506): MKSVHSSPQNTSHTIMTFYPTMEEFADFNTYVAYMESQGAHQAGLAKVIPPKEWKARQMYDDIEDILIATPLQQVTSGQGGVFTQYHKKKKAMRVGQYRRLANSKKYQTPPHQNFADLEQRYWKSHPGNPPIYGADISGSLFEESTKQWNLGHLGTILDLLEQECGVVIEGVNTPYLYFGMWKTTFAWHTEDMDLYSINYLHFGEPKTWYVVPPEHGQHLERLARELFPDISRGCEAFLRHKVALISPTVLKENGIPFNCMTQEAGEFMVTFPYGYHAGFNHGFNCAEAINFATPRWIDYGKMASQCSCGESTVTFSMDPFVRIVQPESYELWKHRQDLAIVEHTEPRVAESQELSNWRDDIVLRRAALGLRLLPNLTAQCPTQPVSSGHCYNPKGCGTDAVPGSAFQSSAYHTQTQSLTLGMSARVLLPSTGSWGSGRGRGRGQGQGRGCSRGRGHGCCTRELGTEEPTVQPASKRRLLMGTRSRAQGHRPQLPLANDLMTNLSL

PHD2 = biological target: T3, PHD2 (Homo sapiens, UniProt Q9GZT9); test: SPE-MS PHD2 inhibition assay (HIF-1α CODD hydroxylation); format: biochemical; conditions: Table 2; PHD2 181–426 […], 5.0 μM HIF-1α CODD; n = 2, mean ± SD
T3 construct: His6-PHD2_181–426; made in house; host or cells: Escherichia coli
T3 sequence (Q9GZT9 181-426): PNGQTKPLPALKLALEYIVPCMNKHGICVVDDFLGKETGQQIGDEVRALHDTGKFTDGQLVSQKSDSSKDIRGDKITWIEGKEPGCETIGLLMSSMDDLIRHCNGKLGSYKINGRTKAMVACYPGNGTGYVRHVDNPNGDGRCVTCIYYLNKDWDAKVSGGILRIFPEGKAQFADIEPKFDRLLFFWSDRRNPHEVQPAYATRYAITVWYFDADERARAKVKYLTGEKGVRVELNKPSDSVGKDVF
Protocol: (§1) H3_1-15K9me3, histone 3 (H3), residues 1–15 with K9 of H3-bearing three methyl groups at the N^ε-position, K4 of H3 substituted by an alanine residue, and K14 of H3 by an isoleucine residue,[73] for KDM4E; and RPL27A, residues 31–49, for RIOX2 (Mina53).[44]
(§2) Cosubstrate/cofactor stock solutions [L-ascorbic acid/LAA: 50 mM in MQ-grade water; 2-oxoglutarate/2OG: 10 mM in MQ-grade water; ammonium iron(II) sulfate hexahydrate/FAS/(NH4)2Fe(SO4)2·6H2O: 400 mM in 20 mM HCl diluted to 1 mM in MQ-grade water] were freshly prepared from commercial solids (Sigma-Aldrich) on the day the assays were performed. The JMJD5,[42] PHD2,[70] FIH,[70] KDM4E,[72],[73] RIOX2,[44] and AspH[45] […] For JMJD5, PHD2, FIH, RIOX2, and AspH, substrate hydroxylation was monitored (+16 Da mass shift), while for the KDM4E substrate, demethylation was monitored (−14 Da mass shift) by SPE-MS.

RIOX2 = biological target: T4, RIOX2 (Homo sapiens, UniProt Q8IUF8); test: SPE-MS RIOX2 inhibition assay (RPL27A31–49 hydroxylation); format: biochemical; conditions: Table 2; His6-RIOX2 26–465 […], 5.0 μM RPL27A31–49; n = 2, mean ± SD
T4 construct: N-terminally His6-tagged RIOX2_26–465; made in house; host or cells: Escherichia coli
T4 sequence (Q8IUF8 26-465): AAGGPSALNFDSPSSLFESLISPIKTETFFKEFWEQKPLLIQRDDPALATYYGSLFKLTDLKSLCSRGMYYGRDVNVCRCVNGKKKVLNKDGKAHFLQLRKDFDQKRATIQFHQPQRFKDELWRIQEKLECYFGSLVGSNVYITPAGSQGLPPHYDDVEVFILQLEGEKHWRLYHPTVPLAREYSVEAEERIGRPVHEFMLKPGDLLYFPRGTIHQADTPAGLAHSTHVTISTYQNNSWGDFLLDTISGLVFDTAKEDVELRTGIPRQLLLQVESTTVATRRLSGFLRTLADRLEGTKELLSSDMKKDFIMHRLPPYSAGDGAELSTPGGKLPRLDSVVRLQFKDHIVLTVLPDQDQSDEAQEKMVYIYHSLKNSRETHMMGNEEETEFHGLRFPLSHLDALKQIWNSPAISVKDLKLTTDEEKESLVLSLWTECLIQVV
Protocol: Cosubstrate/cofactor stock solutions [L-ascorbic acid/LAA: 50 mM in MQ-grade water; 2-oxoglutarate/2OG: 10 mM in MQ-grade water; ammonium iron(II) sulfate hexahydrate/FAS/(NH4)2Fe(SO4)2·6H2O: 400 mM in 20 mM HCl diluted to 1 mM in MQ-grade water] were freshly prepared from commercial solids (Sigma-Aldrich) on the day the assays were performed. […] For JMJD5, PHD2, FIH, RIOX2, and AspH, substrate hydroxylation was monitored (+16 Da mass shift), while for the KDM4E substrate, demethylation was monitored (−14 Da mass shift) by SPE-MS.

AspH [3] = biological target: T1, AspH; test: SPE-MS AspH inhibition assay (hFX-CP101–119 hydroxylation); format: biochemical; conditions: Table 2; His6-AspH315–758 0.05 μM, 1.0 μM hFX-CP101–119; n = 2, mean ± SD
Protocol: as §1, §2

KDM4E [4] = biological target: T2, KDM4E; test: SPE-MS KDM4E inhibition assay (demethylation of H3 1–15 K9me3); format: biochemical; conditions: Table 2, 10.0 μM H3 1–15 K9me3, n = 2, mean ± SD
Protocol: as §1, §2

KDM4E [5] = biological target: T2, KDM4E; conditions: Supporting Table S1; reported FDH-coupled spectrophotometric assay; ref SI 17; cited from earlier work
[6] = Table 1, JMJD5 […], 2OG 2.0 μM, Fe(II) 2.0 μM, LAA 100 μM, RPS6 128–148 2.0 μM, pH 7.5, 20 °C, n = 3, mean ± SD, read-out: IC50 JMJD5
[7] = isolated recombinant JMJD5, SPE-MS
[8] = isolated recombinant JMJD5, SPE-MS, approximate values, read-out: IC50 for JMJD5 inhibition
[9] = Table 2, JMJD5 […], 2OG 2.0 μM, Fe(II) 2.0 μM, LAA 100 μM, RPS6 128–148 2.0 μM, n = 3, mean ± SD, read-out: IC50 JMJD5
[10] = Supporting Table S1, JMJD5 […], 2OG 2.0 μM, RPS6 128-148 2.0 μM, pH 7.5, 20 °C, n = 3, mean ± SD, read-out: IC50 JMJD5
[11] = supplementary CSV, read-out: IC50 JMJD5

Compound: O=C(O)c1ccnc(C(=O)O)c1C(F)(F)F [Compound 14, 3-trifluoromethyl-2,4-PDCA]
AspH inhibition (in words) (AspH [1]; isolated recombinant AspH): does not inhibit | IC50 (human JMJD5; [6]): > 50 µM | JMJD5 inhibition (in words) (human JMJD5; [7]): did not efficiently inhibit JMJD5 | IC50 (human JMJD5; [8]): > 50 µM | KDM4E inhibition (in words) (KDM4E [2]): not to inhibit KDM4E

Compound: O=C(O)c1cc(C(=O)O)c(C(F)(F)F)cn1 [Compound 16, 5-trifluoromethyl-2,4-PDCA]
IC50 (human JMJD5; [6]): > 50 µM | JMJD5 inhibition (in words) (human JMJD5; [7]): did not efficiently inhibit JMJD5; also recorded: does not inhibit JMJD5 | IC50 (human JMJD5; [8]): > 50 µM | KDM4E inhibition (in words) (KDM4E [2]): not to inhibit KDM4E

Compound: COc1ccc(CNc2cnc(C(=O)O)cc2C(=O)O)cc1 [Compound 20h, 5-((4-methoxybenzyl)amino)pyridine-2,4-dicarboxylic acid]
IC50 (PHD2): > 50 µM | IC50 (RIOX2): 27.6 ± 7.1 µM | IC50 (AspH [3]): 2 ± 0.4 µM | IC50 (KDM4E [4]): 15.5 ± 1.9 µM

Compound: COc1ccccc1CNc1cnc(C(=O)O)cc1C(=O)O [Compound 20i, 5-((2-methoxybenzyl)amino)pyridine-2,4-dicarboxylic acid]
IC50 (PHD2): > 50 µM | IC50 (RIOX2): > 50 µM | IC50 (AspH [3]): 0.9 ± 0.2 µM | IC50 (KDM4E [4]): 11.3 ± 2.9 µM

Compound: O=C(O)c1ccc(Nc2c(C(=O)O)ccnc2C(=O)O)cc1 [Compound 22]
IC50 (KDM4E [5]): 66 µM | IC50 AspH (AspH [1]): inactive | IC50 (human JMJD5; [10]): > 50 µM | IC50 (human JMJD5; [11]): > 50 µM

Compound: O=C(O)c1ccnc(C(=O)O)c1Nc1ccc([N+](=O)[O-])cc1 [Compound 23]
IC50 (KDM4E [5]): 95 µM | IC50 AspH (AspH [1]): inactive | IC50 (human JMJD5; [10]): > 50 µM | IC50 (human JMJD5; [11]): > 50 µM

Now from value to compound:

IC50 (PHD2): > 50 µM | IC50 (RIOX2): 27.9 ± 6.7 µM | IC50 (AspH [3]): 1.8 ± 0.1 µM | IC50 (human JMJD5; [9]): 0.9 ± 0.2 µM | IC50 (KDM4E [4]): 5.9 ± 0.6 µM
Compound: O=C(O)c1cc(C(=O)O)c(NCCc2ccccc2)cn1 [Compound 20b]

IC50 (PHD2): > 50 µM | IC50 (RIOX2): 27.3 ± 6.7 µM | IC50 (AspH [3]): 2.8 ± 0.4 µM | IC50 (human JMJD5; [9]): 0.3 ± 0.1 µM | IC50 (KDM4E [4]): 28.2 ± 4.1 µM
Compound: O=C(O)c1cc(C(=O)O)c(NCCCc2ccccc2)cn1 [Compound 20c]
